The record followed here is BindingDB's records for doi:10.1021/np9704922 (University of Naples Federico II, 1998).

Each structure is given as a SMILES string.

This assay can be described thus: Inhibition of human synovial secretory PLA2.

Compound `CC1(C)CCC[C@]2(C)[C@H]3CC[C@@H]4[C@H](O)O[C@@H](C5=CC(=O)OC5O)C[C@H]4[C@]3(C)CC[C@@H]12` (stereo partly specified) [Petrosaspongiolide P] came in with an IC50 of 3.8 µM.
